Laboratory results from the kinase profiling compilation of Christmann-Franck et al. (2016).

What was measured:
Experiment in all cases: KINOMEscan competition binding
Details in all cases: compound 10.0 µM
AKT1 (human) = AKT1 (human) (UniProt P31749)
AKT3 (human) = AKT3 (human) (UniProt Q9Y243)
CDC42BPA (human) = CDC42BPA (human) (UniProt Q5VT25)
CDC42BPG (human) = CDC42BPG (human) (UniProt Q6DT37)
CDK11B (human) = CDK11B (human) (UniProt P21127)
CDK14 (human) = CDK14 (human) (UniProt O94921)
CSF1R (human) = CSF1R (human) (UniProt P07333)
DYRK1B (human) = DYRK1B (human) (UniProt Q9Y463)
[1] = tested on: EGFR (human), P00533 [752-759 del]
EPHA8 (human) = EPHA8 (human) (UniProt P29322)
[2] = tested on: FLT3 (human), P36888 [R834Q]
LYN (human) = LYN (human) (UniProt P07948)
MAP2K2 (human) = MAP2K2 (human) (UniProt P36507)
MAP2K3 (human) = MAP2K3 (human) (UniProt P46734)
MAP2K4 (human) = MAP2K4 (human) (UniProt P45985)
MAP4K3 (human) = MAP4K3 (human) (UniProt Q8IVH8)
MAPK1 (human) = MAPK1 (human) (UniProt P28482)
MAPK10 (human) = MAPK10 (human) (UniProt P53779)
MAPK15 (human) = MAPK15 (human) (UniProt Q8TD08)
[3] = tested on: MET (human), P08581 [Y1235D]
MKNK2 (human) = MKNK2 (human) (UniProt Q9HBH9)
NLK (human) = NLK (human) (UniProt Q9UBE8)
PAK3 (human) = PAK3 (human) (UniProt O75914)
PAK6 (human) = PAK6 (human) (UniProt Q9NQU5)
PDGFRB (human) = PDGFRB (human) (UniProt P09619)
PHKG1 (human) = PHKG1 (human) (UniProt Q16816)
PIP5K1A (human) = PIP5K1A (human) (UniProt Q99755)
PRKCE (human) = PRKCE (human) (UniProt Q02156)
PRKD3 (human) = PRKD3 (human) (UniProt O94806)
PTK2 (human) = PTK2 (human) (UniProt Q05397)
RIOK1 (human) = RIOK1 (human) (UniProt Q9BRS2)
RPS6KA2 KD2 (human) = RPS6KA2 KD2 (human) (UniProt Q15349)
SBK1 (human) = SBK1 (human) (UniProt Q52WX2)
SIK1 (human) = SIK1 (human) (UniProt P57059)
SIK3 (human) = SIK3 (human) (UniProt Q9Y2K2)
SRPK3 (human) = SRPK3 (human) (UniProt Q9UPE1)
TTK (human) = TTK (human) (UniProt P33981)
[4] = target: TYK2 JH2 pseudokinase (human) (UniProt P29597)
VRK2 (human) = VRK2 (human) (UniProt Q86Y07)
YSK4 (human) = YSK4 (human) (UniProt Q56UN5)

Sequence of SIK1 (human) (P57059 whole entry, looked up): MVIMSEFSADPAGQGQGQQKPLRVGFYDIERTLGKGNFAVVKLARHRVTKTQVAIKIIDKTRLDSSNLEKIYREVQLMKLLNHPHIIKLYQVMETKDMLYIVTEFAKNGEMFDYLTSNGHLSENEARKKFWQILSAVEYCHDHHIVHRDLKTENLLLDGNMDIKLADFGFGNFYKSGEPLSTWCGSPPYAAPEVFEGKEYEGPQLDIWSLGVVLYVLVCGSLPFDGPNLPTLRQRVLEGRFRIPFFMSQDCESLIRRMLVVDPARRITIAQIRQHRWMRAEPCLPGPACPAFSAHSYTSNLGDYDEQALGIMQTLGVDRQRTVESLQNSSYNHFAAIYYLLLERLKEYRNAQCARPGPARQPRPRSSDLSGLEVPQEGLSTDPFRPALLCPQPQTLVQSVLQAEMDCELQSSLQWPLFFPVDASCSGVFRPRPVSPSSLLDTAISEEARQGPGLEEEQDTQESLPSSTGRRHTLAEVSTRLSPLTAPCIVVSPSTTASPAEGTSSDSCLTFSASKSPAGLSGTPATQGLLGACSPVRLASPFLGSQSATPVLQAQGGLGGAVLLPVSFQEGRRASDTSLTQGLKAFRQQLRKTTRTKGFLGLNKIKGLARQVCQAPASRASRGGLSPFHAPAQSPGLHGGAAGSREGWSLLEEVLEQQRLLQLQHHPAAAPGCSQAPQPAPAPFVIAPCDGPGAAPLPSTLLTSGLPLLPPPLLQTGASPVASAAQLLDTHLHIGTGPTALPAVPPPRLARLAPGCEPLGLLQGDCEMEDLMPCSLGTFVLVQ
Sequence of CSF1R (human) (P07333 whole entry, looked up): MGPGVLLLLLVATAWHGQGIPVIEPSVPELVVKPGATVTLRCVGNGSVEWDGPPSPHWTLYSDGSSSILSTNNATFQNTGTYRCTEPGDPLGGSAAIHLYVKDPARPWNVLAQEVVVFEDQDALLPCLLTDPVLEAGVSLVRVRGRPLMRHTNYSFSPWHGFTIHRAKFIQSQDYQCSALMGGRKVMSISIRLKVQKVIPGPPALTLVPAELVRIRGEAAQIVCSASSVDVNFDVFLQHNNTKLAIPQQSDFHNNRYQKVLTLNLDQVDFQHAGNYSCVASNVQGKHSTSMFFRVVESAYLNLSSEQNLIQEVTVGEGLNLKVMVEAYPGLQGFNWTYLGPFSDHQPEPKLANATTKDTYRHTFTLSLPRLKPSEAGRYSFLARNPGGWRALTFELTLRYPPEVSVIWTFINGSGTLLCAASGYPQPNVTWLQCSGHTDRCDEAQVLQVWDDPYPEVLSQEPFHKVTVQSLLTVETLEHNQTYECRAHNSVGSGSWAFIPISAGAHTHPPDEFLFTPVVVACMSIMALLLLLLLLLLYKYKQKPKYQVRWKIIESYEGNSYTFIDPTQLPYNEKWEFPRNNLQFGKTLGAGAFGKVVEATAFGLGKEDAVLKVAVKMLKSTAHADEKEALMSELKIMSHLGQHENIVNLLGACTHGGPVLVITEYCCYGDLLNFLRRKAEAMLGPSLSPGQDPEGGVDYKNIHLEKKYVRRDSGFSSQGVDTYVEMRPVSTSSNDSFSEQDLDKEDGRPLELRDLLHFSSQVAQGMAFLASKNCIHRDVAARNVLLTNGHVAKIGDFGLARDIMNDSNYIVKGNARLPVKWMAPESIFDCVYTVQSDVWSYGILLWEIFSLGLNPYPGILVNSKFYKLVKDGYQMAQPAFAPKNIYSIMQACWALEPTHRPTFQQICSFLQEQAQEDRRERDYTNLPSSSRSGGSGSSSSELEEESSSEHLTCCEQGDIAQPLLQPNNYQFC
Sequence of TYK2 JH2 pseudokinase (human) (P29597 whole entry, looked up): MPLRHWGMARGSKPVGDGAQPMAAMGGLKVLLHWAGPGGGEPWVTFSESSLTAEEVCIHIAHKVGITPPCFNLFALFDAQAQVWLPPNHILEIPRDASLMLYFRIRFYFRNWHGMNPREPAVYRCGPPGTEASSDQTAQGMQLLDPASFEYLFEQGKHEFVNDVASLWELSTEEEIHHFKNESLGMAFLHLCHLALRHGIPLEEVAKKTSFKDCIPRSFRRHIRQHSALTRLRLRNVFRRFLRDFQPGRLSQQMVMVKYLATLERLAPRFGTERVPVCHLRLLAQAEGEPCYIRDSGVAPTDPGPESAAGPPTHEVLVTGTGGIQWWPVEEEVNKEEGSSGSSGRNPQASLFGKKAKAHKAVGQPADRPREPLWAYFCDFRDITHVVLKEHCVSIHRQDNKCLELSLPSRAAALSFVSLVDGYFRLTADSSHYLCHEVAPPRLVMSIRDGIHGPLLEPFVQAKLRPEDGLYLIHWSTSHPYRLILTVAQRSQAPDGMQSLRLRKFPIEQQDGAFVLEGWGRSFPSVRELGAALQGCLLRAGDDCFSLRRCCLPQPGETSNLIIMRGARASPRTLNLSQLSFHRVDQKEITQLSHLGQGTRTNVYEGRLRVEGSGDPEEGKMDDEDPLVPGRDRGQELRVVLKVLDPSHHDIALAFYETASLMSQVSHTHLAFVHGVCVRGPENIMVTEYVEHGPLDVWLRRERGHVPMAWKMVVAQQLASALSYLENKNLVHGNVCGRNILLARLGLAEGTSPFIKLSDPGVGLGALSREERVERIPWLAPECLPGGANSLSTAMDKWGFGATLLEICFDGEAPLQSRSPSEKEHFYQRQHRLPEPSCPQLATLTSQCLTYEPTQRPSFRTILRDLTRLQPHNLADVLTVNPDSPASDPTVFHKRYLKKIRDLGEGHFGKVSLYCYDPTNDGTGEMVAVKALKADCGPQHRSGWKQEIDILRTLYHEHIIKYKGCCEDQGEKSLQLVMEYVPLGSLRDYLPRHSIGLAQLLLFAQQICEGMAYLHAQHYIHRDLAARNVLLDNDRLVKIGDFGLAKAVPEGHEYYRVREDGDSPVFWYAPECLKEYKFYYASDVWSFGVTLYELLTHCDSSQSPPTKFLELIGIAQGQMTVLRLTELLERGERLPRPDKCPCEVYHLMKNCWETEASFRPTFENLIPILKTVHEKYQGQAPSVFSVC
Sequence of SBK1 (human) (Q52WX2 whole entry, looked up): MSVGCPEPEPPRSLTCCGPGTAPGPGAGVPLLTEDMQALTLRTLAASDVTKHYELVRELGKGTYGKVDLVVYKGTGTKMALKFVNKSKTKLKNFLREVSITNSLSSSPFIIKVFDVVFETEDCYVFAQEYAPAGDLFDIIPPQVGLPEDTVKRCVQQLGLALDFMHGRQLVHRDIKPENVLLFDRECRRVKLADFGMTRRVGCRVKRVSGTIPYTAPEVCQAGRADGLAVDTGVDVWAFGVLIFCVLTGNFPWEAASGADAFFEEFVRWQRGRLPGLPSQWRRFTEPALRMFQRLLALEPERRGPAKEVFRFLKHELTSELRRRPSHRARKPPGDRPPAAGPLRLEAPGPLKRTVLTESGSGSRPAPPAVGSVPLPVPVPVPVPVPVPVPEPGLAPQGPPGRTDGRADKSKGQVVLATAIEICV
Sequence of CDK14 (human) (O94921 whole entry, looked up): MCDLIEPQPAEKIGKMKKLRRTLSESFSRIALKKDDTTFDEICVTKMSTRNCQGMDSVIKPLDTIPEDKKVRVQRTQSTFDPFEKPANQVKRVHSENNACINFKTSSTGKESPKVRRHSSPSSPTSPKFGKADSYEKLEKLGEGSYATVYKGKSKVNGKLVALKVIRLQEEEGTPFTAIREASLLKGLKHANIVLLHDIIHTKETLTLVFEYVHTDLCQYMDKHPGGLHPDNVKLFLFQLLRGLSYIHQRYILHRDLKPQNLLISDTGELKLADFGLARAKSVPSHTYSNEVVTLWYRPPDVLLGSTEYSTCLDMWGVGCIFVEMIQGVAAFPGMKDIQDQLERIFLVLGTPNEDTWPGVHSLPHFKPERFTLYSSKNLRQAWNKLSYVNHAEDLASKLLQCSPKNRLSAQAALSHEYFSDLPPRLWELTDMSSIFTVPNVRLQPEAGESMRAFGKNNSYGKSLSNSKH
Sequence of RPS6KA2 KD2 (human) (Q15349 whole entry, looked up): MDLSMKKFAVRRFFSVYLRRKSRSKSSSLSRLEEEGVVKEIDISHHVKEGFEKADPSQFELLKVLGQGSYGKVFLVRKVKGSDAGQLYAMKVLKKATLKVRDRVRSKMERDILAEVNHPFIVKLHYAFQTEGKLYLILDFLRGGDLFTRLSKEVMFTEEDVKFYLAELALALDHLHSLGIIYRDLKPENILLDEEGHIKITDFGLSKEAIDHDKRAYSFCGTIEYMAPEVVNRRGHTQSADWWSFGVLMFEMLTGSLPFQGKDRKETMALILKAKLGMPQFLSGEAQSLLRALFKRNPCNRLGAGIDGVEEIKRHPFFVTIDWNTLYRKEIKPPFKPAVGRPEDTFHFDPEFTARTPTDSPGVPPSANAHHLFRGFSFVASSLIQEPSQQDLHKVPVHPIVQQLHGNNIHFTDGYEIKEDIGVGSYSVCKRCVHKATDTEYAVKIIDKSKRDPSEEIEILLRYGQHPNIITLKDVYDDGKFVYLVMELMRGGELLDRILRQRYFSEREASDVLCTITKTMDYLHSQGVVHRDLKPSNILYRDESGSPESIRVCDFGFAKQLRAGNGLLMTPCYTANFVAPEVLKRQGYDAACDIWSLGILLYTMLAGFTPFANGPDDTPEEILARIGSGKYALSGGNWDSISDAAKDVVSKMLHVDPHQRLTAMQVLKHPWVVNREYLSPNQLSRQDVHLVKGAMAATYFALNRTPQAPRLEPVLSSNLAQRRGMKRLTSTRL
Sequence of MAP2K2 (human) (P36507 whole entry, looked up): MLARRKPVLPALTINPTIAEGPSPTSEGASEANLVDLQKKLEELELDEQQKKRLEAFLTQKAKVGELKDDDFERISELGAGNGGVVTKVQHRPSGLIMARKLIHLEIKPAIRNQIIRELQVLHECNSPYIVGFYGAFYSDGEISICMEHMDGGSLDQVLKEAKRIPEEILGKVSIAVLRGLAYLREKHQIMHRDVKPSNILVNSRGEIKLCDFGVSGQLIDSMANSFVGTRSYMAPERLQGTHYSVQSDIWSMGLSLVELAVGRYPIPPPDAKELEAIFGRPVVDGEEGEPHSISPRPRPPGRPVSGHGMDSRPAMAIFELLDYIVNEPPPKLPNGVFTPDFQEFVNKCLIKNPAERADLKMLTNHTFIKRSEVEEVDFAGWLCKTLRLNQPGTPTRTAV

SMILES | kinase still bound, per cent of control (AKT1 (human)) [%] | kinase still bound, per cent of control (AKT3 (human)) [%] | kinase still bound, per cent of control (CDC42BPA (human)) [%] | kinase still bound, per cent of control (CDC42BPG (human)) [%] | kinase still bound, per cent of control (CDK11B (human)) [%] | kinase still bound, per cent of control (CDK14 (human)) [%] | kinase still bound, per cent of control (CSF1R (human)) [%] | kinase still bound, per cent of control (DYRK1B (human)) [%] | kinase still bound, per cent of control [1] [%] | kinase still bound, per cent of control (EPHA8 (human)) [%] | kinase still bound, per cent of control [2] [%] | kinase still bound, per cent of control (LYN (human)) [%] | kinase still bound, per cent of control (MAP2K2 (human)) [%] | kinase still bound, per cent of control (MAP2K3 (human)) [%] | kinase still bound, per cent of control (MAP2K4 (human)) [%] | kinase still bound, per cent of control (MAP4K3 (human)) [%] | kinase still bound, per cent of control (MAPK1 (human)) [%] | kinase still bound, per cent of control (MAPK10 (human)) [%] | kinase still bound, per cent of control (MAPK15 (human)) [%] | kinase still bound, per cent of control [3] [%] | other results
CCN1CCN(C(=O)Cc2ccc(Nc3ncc(F)c(Nc4ccc(C(=O)Nc5ccccc5Cl)cc4)n3)cc2)CC1 | 100 | 100 | 100 | 66 | 87 | 53 | 6.5 | 46 | 56 | 63 | 36 | 46 | 57 | 57 | 49 | 42 | 100 | 0.8 | 54 | 23 | kinase still bound, per cent of control (MKNK2 (human)): 5.6%; kinase still bound, per cent of control (NLK (human)): 98%; kinase still bound, per cent of control (PAK3 (human)): 12%; kinase still bound, per cent of control (PAK6 (human)): 65%; kinase still bound, per cent of control (PDGFRB (human)): 0.15%; kinase still bound, per cent of control (PHKG1 (human)): 82%; kinase still bound, per cent of control (PIP5K1A (human)): 0%; kinase still bound, per cent of control (PRKCE (human)): 100%; kinase still bound, per cent of control (PRKD3 (human)): 100%; kinase still bound, per cent of control (PTK2 (human)): 28%; kinase still bound, per cent of control (RIOK1 (human)): 0%; kinase still bound, per cent of control (RPS6KA2 KD2 (human)): 57%; kinase still bound, per cent of control (SBK1 (human)): 75%; kinase still bound, per cent of control (SIK1 (human)): 28%; kinase still bound, per cent of control (SIK3 (human)): 68%; kinase still bound, per cent of control (SRPK3 (human)): 7.8%; kinase still bound, per cent of control (TTK (human)): 18%; kinase still bound, per cent of control [4]: 12%; kinase still bound, per cent of control (VRK2 (human)): 100%; kinase still bound, per cent of control (YSK4 (human)): 7.2%
NC(=O)Nc1cc(-c2cccc(F)c2)sc1C(=O)N[C@@H]1CCCNC1 | 3.2 | 100 | 62 | 72 | 100 | 100 | 0 | 1.8 | 2.4 | 0.4 | 5.6 | 0.65 | 0 | 10 | 2.2 | 0.35 | 65 | 63 | 19 | 0.6 | kinase still bound, per cent of control (MKNK2 (human)): 0%; kinase still bound, per cent of control (NLK (human)): 81%; kinase still bound, per cent of control (PAK3 (human)): 0.5%; kinase still bound, per cent of control (PAK6 (human)): 0.35%; kinase still bound, per cent of control (PDGFRB (human)): 0%; kinase still bound, per cent of control (PHKG1 (human)): 0.1%; kinase still bound, per cent of control (PIP5K1A (human)): 0%; kinase still bound, per cent of control (PRKCE (human)): 14%; kinase still bound, per cent of control (PRKD3 (human)): 2.2%; kinase still bound, per cent of control (PTK2 (human)): 0.1%; kinase still bound, per cent of control (RIOK1 (human)): 0.4%; kinase still bound, per cent of control (RPS6KA2 KD2 (human)): 1.9%; kinase still bound, per cent of control (SBK1 (human)): 0%; kinase still bound, per cent of control (SIK1 (human)): 0.3%; kinase still bound, per cent of control (SIK3 (human)): 6.2%; kinase still bound, per cent of control (SRPK3 (human)): 0.55%; kinase still bound, per cent of control (TTK (human)): 12%; kinase still bound, per cent of control [4]: 3.2%; kinase still bound, per cent of control (VRK2 (human)): 92%; kinase still bound, per cent of control (YSK4 (human)): 0%
